# The source made the active and inactive calls.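 Rule for the calls: active = more than half of replicate measurements showing over 20% loss of kinase signal relative to plate controls; inconclusive = some but at most half of replicates over 20% loss; inactive = no replicate over 20% signal loss.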
# Target: Glycogen synthase kinase-3 alpha (Homo sapiens) (UniProt P49840)
# Assay: concentration-response blocking of human GSK3A – biochemical, luminescence, cell-free homogeneous, retest, dose response (AID 463203)
# Details: GSK-3 alpha enzyme, ADP-Glo luminescence, 60 min
# Chain of Glycogen synthase kinase-3 alpha (Homo sapiens) (P49840 whole entry, looked up): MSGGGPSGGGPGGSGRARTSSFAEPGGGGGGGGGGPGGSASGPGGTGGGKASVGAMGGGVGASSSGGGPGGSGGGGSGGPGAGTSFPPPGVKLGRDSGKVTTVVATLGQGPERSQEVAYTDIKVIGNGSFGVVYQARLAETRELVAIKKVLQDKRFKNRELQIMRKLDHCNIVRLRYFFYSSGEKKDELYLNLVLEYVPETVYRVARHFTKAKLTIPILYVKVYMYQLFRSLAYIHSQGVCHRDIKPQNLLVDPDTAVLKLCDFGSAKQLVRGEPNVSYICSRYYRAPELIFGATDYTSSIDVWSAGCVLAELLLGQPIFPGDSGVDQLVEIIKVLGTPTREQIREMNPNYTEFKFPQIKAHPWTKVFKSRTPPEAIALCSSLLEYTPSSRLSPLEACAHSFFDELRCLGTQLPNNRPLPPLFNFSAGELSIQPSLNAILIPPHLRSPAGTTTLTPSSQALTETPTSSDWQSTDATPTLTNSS
row,SMILES,AC50
1,Cc1cc(C)cc(NC(=O)CSCc2nc3c(nnn3Cc3ccc(F)cc3)c(=O)[nH]2)c1,> 30 µM (inactive)
2,O=C(CNC(=S)N(Cc1ccccc1)Cc1cccnc1)NC1CCCCC1,> 30 µM (inactive)
3,Cc1oc2ccc(O)cc2c1C(=O)c1ccc(F)cc1,> 30 µM (inactive)
4,C=CCNC(=S)N/N=C(\C)c1ccc(OC)cc1,> 30 µM (inactive)
5,CCN1CCN(c2nc(Nc3ccc(C)c(C)c3)nc(N)c2[N+](=O)[O-])CC1,> 30 µM (inactive)
6,O=C(O)c1[nH]c2ccc([N+](=O)[O-])cc2c1-c1ccccc1,11 µM
7,COc1cc(OC)cc(C(=O)O/N=C(\N)c2ccccn2)c1,> 30 µM (inactive)
8,CC1(C)CC(=O)C(C2c3ccccc3Oc3ccccc32)C(=O)C1,> 30 µM (inactive)
9,COc1ccc(OCc2nc(N)nc(Nc3ccccc3OC)n2)cc1,> 30 µM (inactive)
10,Cc1ccc(C2C(C#N)=C(N)Oc3n[nH]c(-c4cccnc4)c32)o1 (stereo not given),> 30 µM (inactive)
11,Clc1ccc(Nc2nc(NCCN3CCOCC3)nc(N3CCOCC3)n2)cc1,> 30 µM (inactive)
12,COc1ccc(CNc2cc(NCCCO)c([N+](=O)[O-])c3nonc23)cc1,13.3 µM
13,Nc1nonc1-n1nnc(C(=O)N/N=C\c2cccc(Cl)c2)c1CN1CCOCC1,15.2 µM
14,O=C(COc1ccccc1Br)NC1CC1,> 30 µM (inactive)
15,Cc1ccc(-c2nnc3n2N=C(c2ccccc2Br)CS3)cc1,> 30 µM (inactive)
16,O=C(Cn1c(NCCO)nc2ccccc21)c1ccc([N+](=O)[O-])cc1,> 30 µM (inactive)
17,S=C(NCc1ccccc1)NCc1ccc2c(c1)OCO2,14.2 µM
18,CCNc1c(C(=O)O)ccc2c1C(=O)c1ccccc1C2=O,> 30 µM (inactive)
19,O=C1/C(=C/c2cccc([N+](=O)[O-])c2)N2CCC1CC2,> 30 µM (inactive)
20,Cc1ccc(-c2c3c(=O)n(C)c(=O)n(C)c3cn2Cc2ccccn2)cc1,> 30 µM (inactive)
21,Cc1ccc(C(=O)O/N=C(\N)c2cccc([N+](=O)[O-])c2)cc1,> 30 µM (inactive)
22,COC(=O)c1sc2nc(N3CCCCC3)c3c(c2c1N)CCCC3,> 30 µM (inactive)
23,O=C(Nc1ccc(Cl)c([N+](=O)[O-])c1)c1ccc(NCCCN2CCOCC2)c([N+](=O)[O-])c1,> 30 µM (inactive)
24,CCCCC(=O)Nc1nn(CC)c2nc3c(C)cccc3cc12,> 30 µM (inactive)
25,C/C(NCCCn1ccnc1)=C(\C#N)C(N)=O,19.2 µM
26,CC(C)(C)c1ccc(/C=C2\Oc3cc(O)ccc3C2=O)cc1,> 30 µM (inactive)
27,CC(=S)/C=C1\Sc2ccccc2N1C,> 30 µM (inactive)

row,SMILES,AC50
1,Cn1c(SCC(=O)N/N=C/C=C/c2ccco2)nc2ccccc21,> 30 µM (inactive)
2,CCCNC(=O)NC(C(=O)OC)C12CC3CC(CC(C3)C1)C2 (stereo not given),> 30 µM (inactive)
3,O=C(Nc1nc2c(s1)CCCC2)c1ccc(Br)o1,> 30 µM (inactive)
4,O=C(CN1CCCCCC1)Nc1ccccc1Oc1ccccc1,> 30 µM (inactive)
5,CCN1C(=O)C(=C/C=C/c2ccco2)C(=O)N(CC)C1=S,> 30 µM (inactive)
6,Cc1nn(C)c(C)c1CN(C)S(=O)(=O)c1ccc(F)cc1,> 30 µM (inactive)
7,CCOC(=O)CN1CC23C=CC(O2)C(C(=O)O)C3C1=O (stereo not given),> 30 µM (inactive)
8,Cc1ccc(CNc2nc(N)c([N+](=O)[O-])c(NCc3ccccc3)n2)cc1,> 30 µM (inactive)
9,c1ccc(N2CCN(c3nc4ccccc4n4cnnc34)CC2)cc1,> 30 µM (inactive)
10,CC(=O)c1cc(-c2ccc(F)cc2)n(CCC(=O)Nc2cccnc2)c1C,> 30 µM (inactive)
11,Cc1cccc(N(C)C(=O)C2CCCN2S(=O)(=O)c2cccc3nsnc23)c1 (stereo not given),24.8 µM
12,Cc1ccc(N(CC(O)CN2CCCCC2)S(=O)(=O)c2ccccc2)cc1 (stereo not given),> 30 µM (inactive)
13,CCN(CC)Cc1c(C(=O)N/N=C(\C)c2ccncc2)nnn1-c1nonc1N,9.96 µM
14,O=C(c1ccc2c3n(nc2c1)-c1ccccc1CO3)N1CCOCC1,18.8 µM
15,CC(=O)Nc1ncc(Cc2cccc(Cl)c2Cl)s1,> 30 µM (inactive)
16,COc1ccc(OC)c(N=c2oc3c(OC)cccc3cc2C(=O)NCc2ccco2)c1,> 30 µM (inactive)
17,CCCCC(=O)Nc1sc2c(c1C(N)=O)CCC2,> 30 µM (inactive)
18,CCCCSc1nc(C)[nH]c1[N+](=O)[O-],> 30 µM (inactive)
19,Clc1ccc(-c2nc3ncccn3c2Nc2ccc3c(c2)OCO3)cc1,> 30 µM (inactive)
20,CCOC(=O)c1oc2ccc3c(c2c1C)C(=O)CC1(CCN(C(=O)OCC)CC1)O3,> 30 µM (inactive)
21,CC(=O)Nc1ccc(Oc2ccc3c(c2)C(=O)NC3=O)cc1,25 µM
22,CCCCn1c(O)c(C=NCCCn2ccnc2)c(=O)[nH]c1=O,5.81 µM
23,CCOC(=O)c1ccc(NC(=O)CSCc2ccco2)cc1,> 30 µM (inactive)
24,COc1cccc(NC(=O)Nc2cc(Cl)ccc2C)c1,> 30 µM (inactive)
25,CSc1ccc(C2C3(C#N)C(N)=NC4(OCCO4)C23C#N)cc1 (stereo not given),> 30 µM (inactive)
26,O=C1c2cnc3nc(SCc4ccccc4)nn3c2CC2c3ccccc3CCN12 (stereo not given),> 30 µM (inactive)
27,Cc1ccc2nc(Cl)c(/C=N/Nc3ccc(C(=O)O)cc3)cc2c1,> 30 µM (inactive)

row,SMILES,AC50
1,COc1ccc(OC)c(C(=O)c2c(C)oc3cc(Br)c(O)c(CN(C)C)c23)c1,> 30 µM (inactive)
2,Cc1cccc(N(CC(O)CN2CCCC2)S(=O)(=O)c2ccccc2)c1 (stereo not given),> 30 µM (inactive)
3,O=c1cc(-c2ccncc2)oc2c1ccc1ccccc12,0.312 µM
4,CC1(C)Cc2cccc(C(=O)Nc3ccc(Cl)cc3)c2O1,> 30 µM (inactive)
5,CC1CCCCC1NC(=O)C(=O)NCC1CCCO1 (stereo not given),> 30 µM (inactive)
6,COc1ccc(C(=O)c2sc(Nc3ccccc3)c(C(=O)Nc3ccc(OC)c(OC)c3)c2N)cc1,> 30 µM (inactive)
7,CCOC(=O)C1CCCN(Cc2sccc2C)C1 (stereo not given),> 30 µM (inactive)
8,FC(F)(F)c1nnc2n1N=C(c1cccs1)CS2,> 30 µM (inactive)
9,N#C/C(C(N)=O)=C1/CCc2ccccc2N1,12.5 µM
10,COc1ccc(C(=O)NNC(=O)c2ccccn2)cc1,11.8 µM
11,CC(C)C(=O)NC(=S)/C=C1/N(C)c2ccccc2C1(C)C,> 30 µM (inactive)
12,CC1=C(C(=O)OC2CCCCC2)C(c2cccs2)n2c(nc3ccccc32)N1 (stereo not given),> 30 µM (inactive)
13,O=C1NC(=Nc2ccccc2Cl)S/C1=C\c1cc([N+](=O)[O-])ccc1O,3.23 µM
14,CCOC(=O)c1nnn(-c2ccc(OC)cc2)c1N,> 30 µM (inactive)
15,COc1ccc(-c2c(C(C)=O)c(C)nc3sc4c(=O)[nH]nnc4c23)cc1,30.1 µM
16,CCOc1ccccc1-n1c(O)c(C=NCCCn2ccnc2)c(=O)[nH]c1=O,20.5 µM
17,N#C/C(=N\Nc1ccccc1)C(N)=S,> 30 µM (inactive)
18,COc1cc2c(cc1OC)-c1c3c(cc4c1[C@@H](C2)N(C)CC4)OCO3,24.9 µM
19,CCOC(=O)N1CCN(C(=O)CSc2ccc3nnc(-c4ccccn4)n3n2)CC1,> 30 µM (inactive)
20,CCCC(=O)NNC(=O)c1c(O)c2ccccc2[nH]c1=O,> 30 µM (inactive)
21,CCSc1nc2sc3c(c2c(=O)n1CC)CC(C)(C)OC3,> 30 µM (inactive)
22,COc1cc2c(cc1OC)-c1nnc(C)n1C1(CCCC1)C2,30.2 µM
23,CC1(C)Cc2nc3oc4c(=S)nc[nH]c4c3cc2CO1,17 µM
24,CCN(C(=O)CN1CC=C(c2ccccc2)CC1)c1c(N)n(Cc2ccccc2)c(=O)[nH]c1=O,> 30 µM (inactive)
25,CC(=O)c1c(O)cc(O)cc1CC(=O)O,> 30 µM (inactive)
26,CCc1cccc(NC(=O)C2CCN(c3ncnc4sc(C)c(C)c34)CC2)c1,> 30 µM (inactive)
27,COc1ccc(-c2cc(=O)oc3cc(O)ccc23)cc1,19.5 µM

row,SMILES,AC50
1,O=C(CSc1nc2[nH]ncc2c(=O)n1-c1ccc(Cl)c(Cl)c1)NCc1ccccc1Cl,> 30 µM (inactive)
2,N#CCCn1cc(/C=N/O)c(-c2ccccc2)n1,> 30 µM (inactive)
3,CCCc1cc(C(N)=O)c(NC(=O)C2CCCO2)s1 (stereo not given),> 30 µM (inactive)
4,CCOC(=O)c1cc(-c2ccc(F)cc2)n(CC(=O)NC(C)CC)c1C (stereo not given),> 30 µM (inactive)
5,Cc1ccc(C(=O)c2cnc3cc4c(cc3c2S(=O)(=O)c2ccccc2)OCCO4)cc1,> 30 µM (inactive)
6,O=C(Nc1ccccc1)c1cc(-n2cnnc2)ccc1Cl,> 30 µM (inactive)
7,C/C(CC(=O)Nc1ccc(Cl)cc1Cl)=N\NC(=O)C(=O)N1CCCC1,> 30 µM (inactive)
8,Cc1cccc(N2CCN(C(=O)c3cc4c(=O)[nH]c5ccccc5c4n3C)CC2)c1C,> 30 µM (inactive)
9,S=C(Nc1ccc(Nc2ccccc2)cc1)Nc1ccccn1,> 30 µM (inactive)
10,CC(C)(C)c1ccc(CSc2nnc(-c3ccccc3NC(=O)c3ccccc3)o2)cc1,> 30 µM (inactive)
11,NC1=NC(=O)/C(=C/c2cccs2)S1,> 30 µM (inactive)
12,O=C(Nc1cccc(C(=O)NC2CCCCC2)c1)c1ccccc1,> 30 µM (inactive)
13,CC(=O)Nc1ccc(C(=O)OCC(=O)Nc2c(C)n(C)n(-c3ccccc3)c2=O)cc1,> 30 µM (inactive)
14,O=[N+]([O-])c1ccccc1/C=N/n1c(-c2cccnc2)n[nH]c1=S,28 µM
15,CC(=O)Nc1ccc(S(=O)(=O)NC(C)c2ccncc2)cc1 (stereo not given),> 30 µM (inactive)
16,O=c1[nH]ncc(N/N=C\c2ccncc2)c1Cl,25.4 µM
17,Cc1nc(NCC2CCCO2)nc2c1C(=O)CC(C)C2 (stereo not given),> 30 µM (inactive)
18,COc1ccc2nc(NC(=O)CSc3cn[nH]n3)sc2c1,9.56 µM
19,O=C(COC(=O)c1cccc(S(=O)(=O)N2CCOCC2)c1)Nc1ncc(Cl)cc1Cl,> 30 µM (inactive)
20,O=C(NCCN1CCc2ccccc2C1)Nc1ccc(F)cc1,> 30 µM (inactive)
21,O=C1c2c(O)ccc(O)c2C(=O)c2c(NCCNCCO)ccc(NCCNCCO)c21,28.3 µM
22,COc1ccc(C(=O)O/N=C(\N)c2ccccc2)cc1,25 µM
23,Cc1ccc(N(CC(O)CN2CCCCC2)S(=O)(=O)c2ccc(C)cc2)cc1 (stereo not given),> 30 µM (inactive)
24,Oc1ccc(-c2csc(Nc3cccnc3)n2)cc1,10.7 µM

# From PubChem BioAssay AID463203 (Broad Institute, 2010)
